How the values were obtained:
Rat1a-c-Myc cells [1] = experiment: In vivo tumor growth of pre-treated Rat1a-c-Myc cells in nude mice; conditions: cells exposed 3 days to compound, then inoculated subcutaneously; no further compound
Description: All growth curves were performed in 12-well tissue culture plates as previously described (Yin et al., (1999b)). Rat1a-neo, Rat1a-c-Myc, and TGR-1 fibroblasts were seeded at an initial density of 2×10^3 cells/well whereas HO15.19 c-Myc KO cells were seeded at 5×10^3 cells/well. The following day, each compound, or DMSO vehicle alone, was added to the indicated final concentrations. Fresh medium and compound were added every 3–4 days. Cells were trypsinized and manually counted at the indicated times. […] For in vivo assays, Rat1a-c-Myc cells were grown to approximately 50% confluency. Fresh medium plus the indicated compounds, or DMSO vehicle alone, were then added to cells for an additional 3 days. At the end of this time, none of the cultures contained fewer than […] apoptotic cells as determined by trypan blue staining and TUNEL assays. The cells were then washed twice in PBS, trypsinized and resuspended in a minimal volume of fresh medium containing the same concentration of compound. In total, 2×10^7 cells were then inoculated subcutaneously into the flanks of nude mice (five animals per group) and no additional compound was administered for the duration of the experiment. Tumor growth was monitored weekly and the average tumor volume ([…].) was calculated as previously described (Yin X. Y., Grove E., Rogulski K. and Prochownik E. V., (2002), J. Biol. Chem., 277:19998–20010).
Rat1a-c-Myc cells form rapidly growing tumors in nude mice (Yin et al., 1999b). […] Rat1a-c-Myc cells were therefore exposed to the indicated Myc-Max-specific compounds for 3 days at the concentrations shown in FIG. 4. […] These cells were then inoculated into nude mice and monitored for tumor formation. Rat1a-c-Myc cells that had been incubated for 3 days in DMSO vehicle only served as a positive control.
Rat1a-c-Myc cells were exposed to the indicated Myc-Max-specific compounds for 3 days at the concentrations shown in FIG. 4, and then inoculated subcutaneously into the flanks of nude mice (five animals per group). Based on trypan blue staining, >95% of the inoculated cells were viable at the time of inoculation. Tumor growth was monitored and recorded weekly. Each point indicates the average tumor volume among the groups ±1 s.e.

Rat1a-c-Myc cells [2] = experiment: Cell cycle profiles by propidium iodide flow cytometry; assay type: cell-based, rat; conditions: 24 h, concentrations of FIG. 4
Description: This assay was performed as previously described (Nesbit C. E., Grove L. E., Yin X. Y. and Prochownik E. V. (1998), Cell Growth Differ., 9:731–741; Nesbit C. E., Tersak J. M., Grove L. E., Drzal A., Choi H. and Prochownik E. V. (2000), Oncogene, 19:3200–3212; and Yin X. Y., Grove L., Datta N., Katula K., Long M. W. and Prochownik E. V. (2001), Cancer Res., 61:6487–6493). Cell cycle profiles were performed on propidium iodide-stained nuclei as previously described (Yin et al., (1999a)) using a Becton-Dickinson FACStar flow cytometer. A total of 2×10^4 cells were analyzed in triplicate for each point and quantitation was performed using single histogram statistics.
In contrast to c-Myc's promotion of cell cycle progression, its inhibition halts this process and results in an accumulation of cells in G0/G1 (Freytag S. O. (1988), Mol. Cell. Biol., 8:1614–1624; Prochownik et al., 1988 and deAlboran et al., 2001). Therefore, it was asked whether any of the above compounds could affect the cell cycle profiles of otherwise actively proliferating cells. Rat1a-c-Myc cells were plated at low concentrations and grown for 2 additional days until attaining approximately 30% confluency. The cells were then re-fed with fresh medium alone, medium containing DMSO only, or medium containing each of the Myc-Max-specific compounds. After 24 h, cells were harvested and cell cycle profiles were generated by flow cytometry following propidium iodide staining (Yin et al., 2001). […] In contrast, all of the compounds tested caused significant increases in the fraction of the G0/G1 population.

Row | Structure (SMILES) | inhibition of in vivo tumor growth (Rat1a-c-Myc cells [1]) | % of cells in G0/G1 (Rat1a-c-Myc cells [2]) | % of cells in G2/M (Rat1a-c-Myc cells [2]) | % of cells in S (Rat1a-c-Myc cells [2])
1 | O=[N+]([O-])c1ccc(CCNC2CC3CCC2C3)cc1 (stereo not shown) [#10009, bicyclo[2.2.1]hept-2-yl-[2-(4-nitro-phenyl)-ethyl]-amine] | inhibition of in vivo tumor growth | 66.3% | 10.6% | 23.1%
2 | CCCOc1ccc(N2C(=O)CC(N3CCC(C(=O)O)CC3)C2=O)cc1 (stereo not shown) [#10031, 1-[2,5-dioxo-1-(4-propoxy-phenyl)-pyrrolidin-3-yl]-piperidine-4-carboxylic acid] |  | 60.9% | 5.2% | 33.9%
3 | Cc1ccc2c(c1)C(=NNc1nc(C)c(C(=O)Nc3cccc([N+](=O)[O-])c3)s1)CC(c1ccccc1)O2 (stereo not shown) [#10050, 4-methyl-2-[N′-(6-methyl-2-phenyl-chroman-4-ylidene)-hydrazino]-thiazole-5-carboxylic acid (3-nitrophenyl)-amide] | inhibition of in vivo tumor growth | 58.7% | 11.7% | 29.6%
4 | CCc1ccc(C=C2SC(=S)NC2=O)cc1 [#10058, 5-(4-ethyl-benzylidene)-2-thioxothiazolidin-4-one] | inhibition of in vivo tumor growth | 62.6% | 13.7% | 23.7%
5 | O=C1CSC(=O)N1CC(O)Cn1c2ccc(Cl)cc2c2cc(Cl)ccc21 (stereo not shown) [#10074A4, 3-[3-(3,6-dichloro-carbazol-9-yl)-2-hydroxy-propyl]-thiazolidine-2,4-dione] | inhibition of in vivo tumor growth | 68.7% | 9.8% | 21.5%
6 | O=[N+]([O-])c1ccc(Nc2ccccc2-c2ccccc2)c2nonc12 [#10074G4, biphenyl-2-yl-(7-nitro-benzo[1,2,5]oxadiazol-4-yl)-amine] |  | 53.9% | 7.4% | 38.7%
7 | CCN(CC)C1CC(=O)N(c2cccc(Cl)c2)C1=O (stereo not shown) [#10075, 1-(3-Chloro-phenyl)-3-diethylamino-pyrrolidine-2,5-dione] |  | 65.1% | 10.7% | 24.2%

From US7026343B2, “Pharmacologic inhibition of Myc function” (University of Pittsburgh - of the Commonwealth System of …, priority 2002, dated 2006)
